Experimental data as given in ChEMBL document CHEMBL1201862, “PubChem BioAssay data set” (2004).
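Five compound concentrations were applied to cells in 96-well plates for 48 hours; endpoints were derived by simple linear interpolation of the resulting dose-response curve. The concentration for 50% growth inhibition is given as GI50.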 Calls of active or inactive are those of the source. No stated cut-off is given here; in the data, active = GI50 up to about 1.1 µM and inactive = higher.

Tests used:
Experiment in all cases: NCI tumour cell line growth inhibition, 48 h
[1] = system: K562
[2] = system: IGROV-1
[3] = system: LOX IMVI
[4] = system: NCI/ADR-RES
[5] = system: A549
[6] = system: Hs-578T
[7] = system: HL-60
[8] = system: RXF 393
[9] = system: SK-MEL-2
[10] = system: HT-29
[11] = system: T47D
[12] = system: MCF7
[13] = system: CAKI-1
[14] = system: SR
[15] = system: BT-549
[16] = system: SK-MEL-28
[17] = system: EKVX
[18] = system: SF-539
[19] = system: OVCAR-8
[20] = system: KM-20L2

SMILES	GI50 [1]	GI50 [2]	GI50 [3]	GI50 [4]	GI50 [5]	GI50 [6]	GI50 [7]	GI50 [8]	GI50 [9]	GI50 [10]	GI50 [11]	GI50 [12]	GI50 [13]	GI50 [14]	GI50 [15]	GI50 [16]	GI50 [17]	GI50 [18]	GI50 [19]	GI50 [20]
COc1ccc(NC2CC(C)N(C(=O)c3ccccc3)O2)cc1 (stereo not drawn)	> 10 µM (inactive)	> 10 µM (inactive)	> 10 µM (inactive)	> 10 µM (inactive)	> 10 µM (inactive)	> 10 µM (inactive)	9.91 µM (inactive)	> 10 µM (inactive)	> 10 µM (inactive)	> 10 µM (inactive)	> 10 µM (inactive)	> 10 µM (inactive)	> 10 µM (inactive)	> 10 µM (inactive)	8.79 µM (inactive)	> 10 µM (inactive)	> 10 µM (inactive)	> 10 µM (inactive)	> 10 µM (inactive)	–
N#Cc1c(O)c(/N=N/c2ccc(Cl)cc2)c(=O)n2c1[nH]c1ccccc12	32.6 µM (inactive)	73.1 µM (inactive)	> 100 µM (inactive)	44 µM (inactive)	44.9 µM (inactive)	52.1 µM (inactive)	55.5 µM (inactive)	53.8 µM (inactive)	45.8 µM (inactive)	35.8 µM (inactive)	27.1 µM (inactive)	43.5 µM (inactive)	78.3 µM (inactive)	29.9 µM (inactive)	34.6 µM (inactive)	45.2 µM (inactive)	> 100 µM (inactive)	53.8 µM (inactive)	37.8 µM (inactive)	–
O=C(/C=C/c1ccc([N+](=O)[O-])cc1)c1nc2ccccc2[nH]1	3.66 µM (inactive)	1.68 µM (inactive)	24.3 µM (inactive)	> 48.2 µM (inactive)	> 45.9 µM (inactive)	> 45.8 µM (inactive)	5.2 µM (inactive)	40.8 µM (inactive)	> 77.8 µM (inactive)	38.5 µM (inactive)	29.2 µM (inactive)	2.21 µM (inactive)	4.23 µM (inactive)	2.49 µM (inactive)	> 62.8 µM (inactive)	> 100 µM (inactive)	61.5 µM (inactive)	26.9 µM (inactive)	> 70.5 µM (inactive)	–
NN/C(=N\S(=O)(=O)c1cc2ccccc2o1)Nc1ccc(Cl)cc1	> 100 µM (inactive)	53 µM (inactive)	> 100 µM (inactive)	> 100 µM (inactive)	> 100 µM (inactive)	39.8 µM (inactive)	> 100 µM (inactive)	20.7 µM (inactive)	> 100 µM (inactive)	> 100 µM (inactive)	28.2 µM (inactive)	> 100 µM (inactive)	> 100 µM (inactive)	> 100 µM (inactive)	57.7 µM (inactive)	> 100 µM (inactive)	91.2 µM (inactive)	> 100 µM (inactive)	51.1 µM (inactive)	–
O=C(Nc1ccc(Cl)cc1)c1cc(S(=O)(=O)NC2=Nc3ccc(Cl)cc3C(c3ccccc3)N2)c(SSc2cc(Cl)c(C(=O)Nc3ccc(Cl)cc3)cc2S(=O)(=O)NC2=Nc3ccc(Cl)cc3C(c3ccccc3)N2)cc1Cl (stereo not drawn)	46.8 µM (inactive)	> 100 µM (inactive)	> 100 µM (inactive)	> 100 µM (inactive)	> 100 µM (inactive)	> 100 µM (inactive)	3.37 µM (inactive)	> 100 µM (inactive)	> 100 µM (inactive)	> 100 µM (inactive)	> 100 µM (inactive)	> 100 µM (inactive)	> 100 µM (inactive)	16.5 µM (inactive)	> 100 µM (inactive)	> 100 µM (inactive)	> 100 µM (inactive)	> 100 µM (inactive)	> 100 µM (inactive)	–
COc1cc(-c2cc(=O)c3cc4c(=O)cc(-c5cc(OC)c(OC)c(OC)c5)oc4cc3o2)cc(OC)c1OC	> 41.9 µM (inactive)	22.7 µM (inactive)	36.1 µM (inactive)	65.9 µM (inactive)	88.9 µM (inactive)	20.1 µM (inactive)	> 100 µM (inactive)	7.98 µM (inactive)	16.7 µM (inactive)	> 100 µM (inactive)	> 54.8 µM (inactive)	> 100 µM (inactive)	23.2 µM (inactive)	> 100 µM (inactive)	17.5 µM (inactive)	> 100 µM (inactive)	> 100 µM (inactive)	58.3 µM (inactive)	27 µM (inactive)	–
COC(=O)C1(C)CCc2c(ccc3ccccc23)C1=O (stereo not drawn)	52.4 µM (inactive)	26.5 µM (inactive)	36.1 µM (inactive)	34.8 µM (inactive)	39.3 µM (inactive)	47.2 µM (inactive)	35.9 µM (inactive)	25 µM (inactive)	26.8 µM (inactive)	40.2 µM (inactive)	24.5 µM (inactive)	30.6 µM (inactive)	16.1 µM (inactive)	39.4 µM (inactive)	27.1 µM (inactive)	64.7 µM (inactive)	31.8 µM (inactive)	86.7 µM (inactive)	40.1 µM (inactive)	–
O=C(O)CC(Nc1ccccc1)C(=O)O (stereo not drawn)	> 100 µM (inactive)	> 100 µM (inactive)	> 100 µM (inactive)	> 100 µM (inactive)	> 100 µM (inactive)	> 100 µM (inactive)	> 100 µM (inactive)	> 100 µM (inactive)	> 100 µM (inactive)	> 100 µM (inactive)	> 100 µM (inactive)	> 100 µM (inactive)	> 100 µM (inactive)	> 100 µM (inactive)	> 100 µM (inactive)	> 100 µM (inactive)	> 100 µM (inactive)	> 100 µM (inactive)	> 100 µM (inactive)	–
CCOc1cc(NC(C)=O)ccc1C(=O)NN1C(=O)C(Cl)C1c1ccccc1 (stereo not drawn)	5.32 µM (inactive)	3.92 µM (inactive)	1.37 µM (inactive)	25.1 µM (inactive)	16.5 µM (inactive)	21.2 µM (inactive)	14.1 µM (inactive)	13.6 µM (inactive)	14.3 µM (inactive)	16.6 µM (inactive)	12.5 µM (inactive)	7.74 µM (inactive)	15.4 µM (inactive)	4.34 µM (inactive)	11.4 µM (inactive)	16.9 µM (inactive)	14.9 µM (inactive)	10.9 µM (inactive)	20.9 µM (inactive)	–
NNC(=O)c1c(Cl)c(Cl)c(Cl)c(Cl)c1-c1nc2ccccc2[nH]1	3.25 µM (inactive)	1.18 µM (inactive)	12.7 µM (inactive)	6.34 µM (inactive)	10 µM (inactive)	18.1 µM (inactive)	4.7 µM (inactive)	3.49 µM (inactive)	6.41 µM (inactive)	14.8 µM (inactive)	2.47 µM (inactive)	2.96 µM (inactive)	13.2 µM (inactive)	2.63 µM (inactive)	14.9 µM (inactive)	15.8 µM (inactive)	12.4 µM (inactive)	20.4 µM (inactive)	29 µM (inactive)	–
Cc1ccc2c3c1O[C@H]1c4nc5ccccc5cc4C[C@@]4(O)[C@@H](C2)N(CC2CC2)CC[C@]314	3.31 µM (inactive)	17.5 µM (inactive)	4.47 µM (inactive)	6.44 µM (inactive)	6.4 µM (inactive)	8.69 µM (inactive)	9.23 µM (inactive)	8 µM (inactive)	18.5 µM (inactive)	3.31 µM (inactive)	15.8 µM (inactive)	10.4 µM (inactive)	13.2 µM (inactive)	3.86 µM (inactive)	11.2 µM (inactive)	19.6 µM (inactive)	15.1 µM (inactive)	4.68 µM (inactive)	10.7 µM (inactive)	–
C=CC[C@]1(C2=NC(C)(C)CO2)c2ccccc2-c2ccccc2[C@H]1C(C)=O	4.91 µM (inactive)	8.38 µM (inactive)	10.6 µM (inactive)	4 µM (inactive)	9.31 µM (inactive)	6.5 µM (inactive)	3.93 µM (inactive)	3.68 µM (inactive)	3.92 µM (inactive)	4.19 µM (inactive)	13 µM (inactive)	4.22 µM (inactive)	10.5 µM (inactive)	3.27 µM (inactive)	16 µM (inactive)	14.2 µM (inactive)	15.6 µM (inactive)	10.8 µM (inactive)	15.7 µM (inactive)	–
COCC(=O)OC1CCn2c1nc1c2C(=O)C(C)=C(NC(C)=O)C1=N (stereo not drawn)	2.63 µM (inactive)	10.8 µM (inactive)	2.53 µM (inactive)	3.99 µM (inactive)	21.3 µM (inactive)	4.1 µM (inactive)	2.9 µM (inactive)	2.16 µM (inactive)	2.15 µM (inactive)	4.21 µM (inactive)	1.95 µM (inactive)	1.69 µM (inactive)	11.2 µM (inactive)	2.64 µM (inactive)	0.993 µM (active)	4.59 µM (inactive)	12.3 µM (inactive)	2.07 µM (inactive)	2.56 µM (inactive)	–
CCCc1nc(Cl)nc(Cl)c1Cl	< 0.0343 µM (active)	0.807 µM (active)	0.0865 µM (active)	0.32 µM (active)	2.22 µM (inactive)	0.475 µM (active)	0.189 µM (active)	0.256 µM (active)	0.291 µM (active)	0.269 µM (active)	0.857 µM (active)	0.137 µM (active)	0.251 µM (active)	< 0.0154 µM (active)	0.0227 µM (active)	0.472 µM (active)	1.03 µM (active)	1.52 µM (inactive)	0.456 µM (active)	–
COCC1N=C(c2cc(OC)c(OC)c(OC)c2-c2cc3c(cc2[C@H](C)O)OCO3)O[C@H]1c1ccccc1 (stereo partly drawn)	> 10 µM (inactive)	> 100 µM (inactive)	63.2 µM (inactive)	–	56.8 µM (inactive)	–	> 10 µM (inactive)	–	36.7 µM (inactive)	76.2 µM (inactive)	–	–	–	–	–	59.2 µM (inactive)	> 100 µM (inactive)	69.7 µM (inactive)	81.5 µM (inactive)	> 100 µM (inactive)
